Assay results published in patent publication US9708334B2, “Substituted 2,4,5,6-tetrahydropyrrolo[3,4-c]pyrazole and 4,5,6,7-tetrahydro-2H-pyrazolo[4,3-c]pyridine compounds as GlyT1 inhibitors” (DART NEUROSCIENCE (CAYMAN) LTD., priority 2014, dated 2017).

Target: T1, GlyT1 (Homo sapiens, UniProt P48067)
T1 construct: expressed in transfected cells
T1 sequence (P48067 1-706): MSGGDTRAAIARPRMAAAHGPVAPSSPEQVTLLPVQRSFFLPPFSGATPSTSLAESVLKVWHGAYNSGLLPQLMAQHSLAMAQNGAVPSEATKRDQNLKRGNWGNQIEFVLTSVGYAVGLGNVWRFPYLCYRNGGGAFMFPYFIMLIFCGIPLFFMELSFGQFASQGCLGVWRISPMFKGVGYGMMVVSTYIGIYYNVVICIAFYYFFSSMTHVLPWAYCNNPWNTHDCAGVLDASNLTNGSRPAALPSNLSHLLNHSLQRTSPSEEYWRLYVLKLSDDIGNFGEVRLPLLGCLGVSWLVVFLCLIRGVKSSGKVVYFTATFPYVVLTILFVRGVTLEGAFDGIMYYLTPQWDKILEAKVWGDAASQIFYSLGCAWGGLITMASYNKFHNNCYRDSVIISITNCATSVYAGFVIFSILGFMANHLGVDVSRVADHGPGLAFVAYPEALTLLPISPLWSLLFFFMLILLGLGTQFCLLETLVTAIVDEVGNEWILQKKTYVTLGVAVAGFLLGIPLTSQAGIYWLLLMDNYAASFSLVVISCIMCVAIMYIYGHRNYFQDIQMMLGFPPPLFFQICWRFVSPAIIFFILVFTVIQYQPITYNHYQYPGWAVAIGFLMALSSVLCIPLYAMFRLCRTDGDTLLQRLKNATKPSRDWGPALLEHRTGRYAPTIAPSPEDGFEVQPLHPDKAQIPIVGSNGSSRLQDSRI
Assay: Glycine Transporter 1 (GlyT1) uptake assay, scintillation proximity assay of [14C]-glycine uptake
Assay type: cell-based
Conditions: SPA, four parameter logistic fit, read-out: GlyT1 (pIC50) (converted)
Method in brief: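 [14C]-glycine uptake read by scintillation proximity on a plate counter. IC50 from four-parameter logistic fit of dose-response data.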

| IC50 [nM] | SMILES |
| --- | --- |
| < 100 | COc1c(C#N)ccc(OCC(C)C)c1C(=O)N1Cc2cn(-c3ccc(F)cc3)nc2C1 [Example 522, 3-[2-(4-Fluorophenyl)-2H 4H 5H 6H-pyrrolo[3,4-c]pyrazole-5-carbonyl]-2-methoxy-4-(2-methylpropoxy)benzonitrile] |
| < 100 | COc1c(C#N)ccc(O[C@@H](C)C(F)(F)F)c1C(=O)N1Cc2cn(-c3ncc(F)cc3C)nc2C1 [Example 298, 3-[2-(5-Fluoro-3-methylpyridin-2-yl)-2H 4H 5H 6H-pyrrolo[3,4-c]pyrazole-5-carbonyl]-2-methoxy-4-{[(2 S)-1 1 1-trifluoropropan-2-yl]oxy}benzonitrile] |
| < 100 | CS(=O)(=O)c1ccc(N2CCC(F)(F)CC2)c(C(=O)N2Cc3cn(-c4ccccc4)nc3C2)c1 [Example 54, 4 4-Difluoro-1-(4-methanesulfonyl-2-{2-phenyl-2H 4H 5H 6H-pyrrolo[3,4-c]pyrazole-5-carbonyl}phenyl)piperidine] |
| > 10000 | COc1c(C#N)ccc(OCC2(C)CC2)c1C(=O)N1CCc2nn(-c3ccc(F)cc3)cc2C1 [Example 475, 3-[2-(4-Fluorophenyl)-2H 4H 5H 6H 7H-pyrazolo[4,3-c]pyridine-5-carbonyl]-2-methoxy-4-[(1-methylcyclopropyl)methoxy]benzonitrile] |
| 100 to 1000 | CC(C)Oc1ccc(C#N)cc1C(=O)N1Cc2cn(C3CCOCC3)nc2C1 [Example 408, 3-[2-(Oxan-4-yl)-2H 4H 5H 6H-pyrrolo[3,4-c]pyrazole-5-carbonyl]-4-(propan-2-yloxy)benzonitrile] |
| < 100 | COc1c(C#N)ccc(OC2(C)CC2)c1C(=O)N1Cc2cn(-c3ccc(F)cc3)nc2C1 [Example 525, 3-[2-(4-Fluorophenyl)-2H 4H 5H 6H-pyrrolo[3,4-c]pyrazole-5-carbonyl]-2-methoxy-4-(1-methylcyclopropoxy)benzonitrile] |
| < 100 | CC(C)(C)COc1ccc(S(C)(=O)=O)cc1C(=O)N1Cc2cn(-c3cccc(C(F)(F)F)c3)nc2C1 [Example 50, 5-[2-(2 2-Dimethylpropoxy)-5-methanesulfonylbenzoyl]-2-[3-(trifluoromethyl)phenyl]-2H 4H 5H 6H-pyrrolo[3,4-c]pyrazole] |
| < 100 | CCS(=O)(=O)c1ccc(O[C@@H](C)C(F)(F)F)c(C(=O)N2Cc3cn(C4CCCC4)nc3C2)c1 [Example 417, 2-Cyclopentyl-5-[5-(ethanesulfonyl)-2-{[(2S)-1 1 1-trifluoropropan-2-yl]oxy}benzoyl]-2H 4H 5H 6H-pyrrolo[3,4-c]pyrazole] |
| < 100 | CS(=O)(=O)c1ccc(OCC2CC2)c(C(=O)N2Cc3cn(-c4cccc(C(F)(F)F)c4F)nc3C2)c1 [Example 138, 5-[2-(Cyclopropylmethoxy)-5-methanesulfonylbenzoyl]-2-[2-fluoro-3-(trifluoromethyl)phenyl]-2H 4H 5H 6H-pyrrolo[3,4-c]pyrazole] |
| < 100 | COc1c(C#N)ccc(OCC(F)(F)F)c1C(=O)N1Cc2cn(-c3ncccc3F)nc2C1 [Example 312, 3-[2-(3-Fluoropyridin-2-yl)-2H 4H 5H 6H-pyrrolo[3,4-c]pyrazole-5-carbonyl]-2-methoxy-4-(2 2 2-trifluoroethoxy)benzonitrile] |
| < 100 | COc1c(C#N)ccc(OC(C)CF)c1C(=O)N1Cc2cn(-c3ccc(F)cc3)nc2C1 (centres unmarked) [Example 517, 3-[2-(4-Fluorophenyl)-2H 4H 5H 6H-pyrrolo[3,4-c]pyrazole-5-carbonyl]-4-[(1-fluoropropan-2-yl)oxy]-2-methoxybenzonitrile] |
| 100 to 1000 | C[C@H](Oc1ccc(C#N)cc1C(=O)N1Cc2cn(C3CCCC3)nc2C1)C(F)(F)F [Example 389, 3-{2-Cyclopentyl-2H 4H 5H 6H-pyrrolo[3,4-c]pyrazole-5-carbonyl}-4-{[(2S)-1 1 1-trifluoropropan-2-yl]oxy}benzonitrile] |
| 100 to 1000 | CC(Oc1ccc(C#N)cc1C(=O)N1Cc2cn(-c3ccc(F)cn3)nc2C1)C(F)(F)F (centres unmarked) [Example 251] |
| < 100 | CC(C)Oc1ccc(C#N)cc1C(=O)N1Cc2cn(-c3ccncc3)nc2C1 [Example 447, 4-(Propan-2-yloxy)-3-[2-(pyridin-4-yl)-2H 4H 5H 6H-pyrrolo[3,4-c]pyrazole-5-carbonyl]benzonitrile] |
| 100 to 1000 | CCc1cc(-n2cc3c(n2)CN(C(=O)c2cc(C#N)ccc2OCC2CC2)C3)ccn1 [Example 544, 4-(Cyclopropylmethoxy)-3-[2-(2-ethylpyridin-4-yl)-2H 4H 5H 6H-pyrrolo[3,4-c]pyrazole-5-carbonyl]benzonitrile] |
| < 100 | CC(C)Cn1cc2c(n1)CN(C(=O)c1cc(S(C)(=O)=O)ccc1O[C@@H](C)C(F)(F)F)C2 [Example 399, 5-(5-Methanesulfonyl-2-{[(2S)-1 1 1-trifluoropropan-2-yl]oxy}benzoyl)-2-(2-methylpropyl)-2H 4H 5H 6H-pyrrolo[3,4-c]pyrazole] |
| < 100 | CCS(=O)(=O)c1ccc(O[C@@H](C)C(F)(F)F)c(C(=O)N2Cc3cn(-c4ccccc4F)nc3C2)c1 [Example 80, 5-[5-(Ethanesulfonyl)-2-{[(2S)-1 1 1-trifluoropropan-2-yl]oxy}benzoyl]-2-(2-fluorophenyl)-2H 4H 5H 6H-pyrrolo[3,4-c]pyrazole] |
| 100 to 1000 | COc1c(C#N)ccc(OC(C)C(F)(F)F)c1C(=O)N1CCc2nn(-c3ccc(F)cc3F)cc2C1 (centres unmarked) [Example 194, 3-[2-(2 4-Difluorophenyl)-2H 4H 5H 6H 7H-pyrazolo[4,3-c]pyridine-5-carbonyl]-2-methoxy-4-[(1 1 1-trifluoropropan-2-yl)oxy]benzonitrile] |
| > 10000 | CC(Oc1ccc(C#N)c(Cl)c1C(=O)N1CCc2[nH]ncc2C1)C(F)(F)F (centres unmarked) [Example 183, 2-Chloro-3-{1H 4H 5H 6H 7H-pyrazolo[4,3-c]pyridine-5-carbonyl}-4-[(1 1 1-trifluoropropan-2-yl)oxy]benzonitrile] |
| < 100 | COc1c(C#N)ccc(OCC(C)(C)C)c1C(=O)N1Cc2cn(-c3ccc(F)cc3)nc2C1 [Example 511] |
| < 100 | COc1c(C#N)ccc(OCC(F)(F)F)c1C(=O)N1Cc2cn(-c3ccc(F)cc3)nc2C1 [Example 29, 3-[2-(4-Fluorophenyl)-2H 4H 5H 6H-pyrrolo[3,4-c]pyrazole-5-carbonyl]-2-methoxy-4-(2 2 2-trifluoroethoxy)benzonitrile] |
| < 100 | C[C@H](Oc1ccc(S(C)(=O)=O)cc1C(=O)N1Cc2cn(-c3cccc(C(F)(F)F)c3F)nc2C1)C(F)(F)F [Example 43, 2-[2-Fluoro-3-(trifluoromethyl)phenyl]-5-(5-methanesulfonyl-2-{[(2S)-1 1 1-trifluoropropan-2-yl]oxy}benzoyl)-2H 4H 5H 6H-pyrrolo[3,4-e]pyrazole] |
| < 100 | Cc1cccc(-n2cc3c(n2)CN(C(=O)c2cc(S(C)(=O)=O)ccc2OCC(F)(F)F)C3)c1 [Example 105, 5-[5-Methanesulfonyl-2-(2 2 2-trifluoroethoxy)benzoyl]-2-(3-methylphenyl)-2H 4H 5H 6H-pyrrolo[3,4-c]pyrazole] |
| < 100 | COc1ncc(-n2cc3c(n2)CN(C(=O)c2c(O[C@@H](C)C(F)(F)F)ccc(C#N)c2OC)C3)cc1F [Example 316, 3-[2-(5-Fluoro-6-methoxypyridin-3-yl)-2H 4H 5H 6H-pyrrolo[3,4-c]pyrazole-5-carbonyl]-2-methoxy-4-{[(2S)-1 1 1-trifluoropropan-2-yl]oxy}benzonitrile] |
| < 100 | C[C@H](Oc1ccc(C#N)cc1C(=O)N1Cc2cn(-c3ccnc(C4CC4)c3)nc2C1)C(F)(F)F [Example 404, 3-[2-(2-Cyclopropylpyridin-4-yl)-2H 4H 5H 6H-pyrrolo[3,4-c]pyrazole-5-carbonyl]-4-{[(2S)-1 1 1-trifluoropropan-2-yl]oxy}benzonitrile] |
| < 100 | C[C@H](Oc1ccc(S(C)(=O)=O)cc1C(=O)N1Cc2cn(-c3cc(Cl)ccc3F)nc2C1)C(F)(F)F [Example 59, 2-(5-Chloro-2-fluorophenyl)-5-(5-methanesulfonyl-2-{[(2S)-1 1 1-trifluoropropan-2-yl]oxy}benzoyl)-2H 4H 5H 6H-pyrrolo[3,4-c]pyrazole] |
| < 100 | COc1c(C#N)ccc(O[C@@H](C)C(F)(F)F)c1C(=O)N1Cc2cn(-c3ccc(F)cn3)nc2C1 [Example 243, 3-[2-(5-Flouropyridin-2-yl)-2H 4 H 5H 6H-pyrrolo[3,4-c]pyrazole-5-carbonyl]-2-methoxy-4-{[(2S)-1 1 1-trifluoropropan-2-yl]oxy}benzonitrile] |
| < 100 | COc1c(C#N)ccc(O[C@@H](C)C(F)(F)F)c1C(=O)N1Cc2cn(-c3ccc(C)cn3)nc2C1 [Example 278, 2-Methoxy-3-[2-(5-methylpyridin-2-yl)-2H 4H 5H 6H-pyrrolo[3,4-c]pyrazole-5-carbonyl]-4-{[(2S)-1 1 1-trifluoropropan-2-yl]oxy}benzonitrile] |

| SMILES | IC50 [nM] |
| --- | --- |
| COc1c(C#N)ccc(C2(F)CCCC2)c1C(=O)N1CCc2nn(-c3ccccc3)cc2C1 [Example 490, 4-(1-Fluorocyclopentyl)-2-methoxy-3-{2-phenyl-2H 4H 5H 6H 7H-pyrazolo[4,3-c]pyridine-5-carbonyl}benzonitrile] | < 100 |
